Reference: US20130149721A1, “Methods for Inhibiting Amyloid Precursor Protein and Beta-Amyloid Production and Accumulation” (WISCONSIN ALUMNI RESEARCH FOUNDATION, priority 2008, published 2013)

What was measured:
APP translation in SN = assay: 35S-Met labeling and immunoprecipitation of newly synthesized APP in synaptoneurosomes; type: cell-based, mouse; conditions: WT SN, 40 μM anisomycin + 100 μM DHPG, 15 min
Description: WT and KO SNs (450 μl) were mixed with 25 μl Redivue Pro-Mix-L [^35S] for 5 min prior to stimulation with 25 μl 2 mM DHPG. Samples were flash frozen at the indicated times. To analyze new protein synthesis, SN lysates were cleared of free isotope, Percoll®, and sucrose by purification with the PAGEprep Advance kit according to the manufacturer's directions. Protein concentrations were determined by the BCA assay, and 15 μg protein was denatured and loaded per lane on 12% SDS gels for content analysis. Gels were dried and exposed to a phosphorimager screen to identify the results of these assays.
To specifically analyze APP synthesis, WT and KO SN lysates (500 μl) were immunoprecipitated with APP antibody. Briefly, SN lysates were precleared with protein A magnetic beads in 1 ml volumes containing 500 μl SNs, 500 μl 2×IP buffer (20 mM HEPES (pH 7.4), 400 mM NaCl, 60 mM EDTA (pH 8), and 2% Triton X-100), protease inhibitor cocktail, and 100 μl packed fresh protein A magnetic beads. For the immunoprecipitations, 10 μg anti-APP antibody (Zymed catalog number 51-2700) and fresh protein A magnetic beads were added and mixed overnight at 4° C. The beads were washed three times with IP buffer, and the final, washed pellets were suspended in 40 μl 2×SDS sample buffer and boiled for 5 min; the proteins were then separated on 12% SDS gels. The gels were transferred to a nitrocelluose membrane, dried, exposed to a phosphorimager screen, and scanned on a STORM 860 phosphorimager (Molecular Dynamics http://www6.amershambiosciences.com). APP bands at 120 kDa were quantitated with ImageQuant software (GE Healthcare Life Sciences, http://www4.amershambiosciences.com).
For mGluR5 inhibitor studies, SNs (425 μl) were preincubated with 25 μl anisomycin (40 μM final concentration) or MPEP (10 μM final concentration) for 10 min prior to the addition of 25 μl ^35S-Met for 5 min and stimulation with DHPG (100 μM final concentration) for 15 min. Samples were processed as described in the preceding paragraph.
To further assess FMRP regulation of APP levels in brain, cortical SN were prepared from WT mice and overall protein synthesis analyzed in response to DHPG (100 μM)-induced mGluR5 activation. SN were metabolically active as assessed by ^35S-Met incorporation. […]
These conclusions were tested by assessing the effects on APP translation of contacting SN with a group 1 mGluR5 antagonist, 2-methyl-6-(phenylethynyl)-pyridine (MPEP). […] To assess the effect of MPEP, a specific mGluR5 antagonist, on DHPG stimulation of de novo APP synthesis, SN were pre-treated with 10 μM MPEP for 10 min prior to the addition of ^35S-Met for 5 min and stimulation with 100 μM DHPG for 15 min. ^35S-Met-labeled APP was immunoprecipitated with anti-APP antibodies and analyzed by SDS-PAGE. […]

anxiety in humans = conditions: cited from earlier work
anxiety in rats = conditions: cited from earlier work
rat mGluR1a = rat mGluR1a (Rattus norvegicus, UniProt P23385); conditions: doses up to 10 μm; cited from earlier work
Sequence of rat mGluR1a (P23385 19-1199): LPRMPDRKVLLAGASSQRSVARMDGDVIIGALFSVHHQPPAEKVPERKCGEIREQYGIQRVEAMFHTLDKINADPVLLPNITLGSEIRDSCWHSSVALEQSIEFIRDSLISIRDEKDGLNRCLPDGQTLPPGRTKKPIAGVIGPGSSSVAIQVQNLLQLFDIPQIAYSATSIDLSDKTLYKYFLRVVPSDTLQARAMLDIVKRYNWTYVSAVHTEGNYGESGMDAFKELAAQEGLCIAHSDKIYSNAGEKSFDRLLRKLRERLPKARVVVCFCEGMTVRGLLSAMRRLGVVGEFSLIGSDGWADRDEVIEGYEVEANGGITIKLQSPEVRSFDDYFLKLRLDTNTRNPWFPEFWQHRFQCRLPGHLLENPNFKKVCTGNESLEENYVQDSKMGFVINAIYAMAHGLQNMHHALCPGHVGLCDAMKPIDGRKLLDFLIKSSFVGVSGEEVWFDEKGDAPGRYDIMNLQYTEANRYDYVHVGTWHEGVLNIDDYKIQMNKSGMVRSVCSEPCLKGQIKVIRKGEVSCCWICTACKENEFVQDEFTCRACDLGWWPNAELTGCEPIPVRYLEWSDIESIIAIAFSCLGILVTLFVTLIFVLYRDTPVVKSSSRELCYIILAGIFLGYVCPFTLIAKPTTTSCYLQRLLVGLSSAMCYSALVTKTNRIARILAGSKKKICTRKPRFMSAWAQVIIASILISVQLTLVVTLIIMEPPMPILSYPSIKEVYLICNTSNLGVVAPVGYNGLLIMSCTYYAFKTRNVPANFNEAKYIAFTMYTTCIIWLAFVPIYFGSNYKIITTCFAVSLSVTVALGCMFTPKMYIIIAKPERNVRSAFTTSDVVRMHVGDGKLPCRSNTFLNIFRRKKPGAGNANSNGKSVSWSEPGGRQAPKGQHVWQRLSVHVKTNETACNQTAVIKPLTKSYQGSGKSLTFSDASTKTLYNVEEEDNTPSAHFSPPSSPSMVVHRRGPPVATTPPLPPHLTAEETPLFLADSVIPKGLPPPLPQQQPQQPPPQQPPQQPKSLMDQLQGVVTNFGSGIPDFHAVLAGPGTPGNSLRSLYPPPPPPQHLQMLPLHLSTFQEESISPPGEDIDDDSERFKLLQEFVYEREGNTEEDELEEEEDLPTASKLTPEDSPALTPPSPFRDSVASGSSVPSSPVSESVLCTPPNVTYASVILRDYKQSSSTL

anxiety in mice = conditions: cited from earlier work
rat mGluR8a = rat mGluR8a (Rattus norvegicus, UniProt P70579); conditions: doses up to 10 μm; cited from earlier work
Sequence of rat mGluR8a (P70579 34-908): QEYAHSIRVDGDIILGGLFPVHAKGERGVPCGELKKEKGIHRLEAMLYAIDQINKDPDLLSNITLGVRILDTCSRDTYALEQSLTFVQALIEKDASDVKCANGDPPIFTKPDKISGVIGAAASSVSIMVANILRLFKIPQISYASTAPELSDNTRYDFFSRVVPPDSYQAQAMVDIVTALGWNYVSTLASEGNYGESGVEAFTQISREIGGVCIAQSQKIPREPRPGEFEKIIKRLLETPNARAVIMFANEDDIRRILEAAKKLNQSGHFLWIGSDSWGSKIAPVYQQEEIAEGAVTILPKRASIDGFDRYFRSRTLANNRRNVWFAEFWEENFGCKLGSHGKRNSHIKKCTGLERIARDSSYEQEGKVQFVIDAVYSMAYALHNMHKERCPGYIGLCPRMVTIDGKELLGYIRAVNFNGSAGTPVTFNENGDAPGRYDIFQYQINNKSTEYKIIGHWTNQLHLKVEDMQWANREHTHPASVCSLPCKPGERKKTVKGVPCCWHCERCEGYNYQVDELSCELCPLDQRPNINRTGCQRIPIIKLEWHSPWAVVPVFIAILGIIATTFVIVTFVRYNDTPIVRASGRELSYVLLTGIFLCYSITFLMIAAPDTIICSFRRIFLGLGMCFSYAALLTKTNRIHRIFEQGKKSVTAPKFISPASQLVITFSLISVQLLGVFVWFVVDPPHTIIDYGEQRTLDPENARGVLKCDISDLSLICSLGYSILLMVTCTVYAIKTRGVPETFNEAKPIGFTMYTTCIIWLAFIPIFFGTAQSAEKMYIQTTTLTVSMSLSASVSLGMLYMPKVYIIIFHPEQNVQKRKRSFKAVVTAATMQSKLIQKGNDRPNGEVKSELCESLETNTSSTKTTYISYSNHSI

mGluR5 = mGluR5 (Homo sapiens, UniProt P41594); conditions: shared allosteric modulatory site; cited from earlier work
Sequence of mGluR5 (P41594 21-1212): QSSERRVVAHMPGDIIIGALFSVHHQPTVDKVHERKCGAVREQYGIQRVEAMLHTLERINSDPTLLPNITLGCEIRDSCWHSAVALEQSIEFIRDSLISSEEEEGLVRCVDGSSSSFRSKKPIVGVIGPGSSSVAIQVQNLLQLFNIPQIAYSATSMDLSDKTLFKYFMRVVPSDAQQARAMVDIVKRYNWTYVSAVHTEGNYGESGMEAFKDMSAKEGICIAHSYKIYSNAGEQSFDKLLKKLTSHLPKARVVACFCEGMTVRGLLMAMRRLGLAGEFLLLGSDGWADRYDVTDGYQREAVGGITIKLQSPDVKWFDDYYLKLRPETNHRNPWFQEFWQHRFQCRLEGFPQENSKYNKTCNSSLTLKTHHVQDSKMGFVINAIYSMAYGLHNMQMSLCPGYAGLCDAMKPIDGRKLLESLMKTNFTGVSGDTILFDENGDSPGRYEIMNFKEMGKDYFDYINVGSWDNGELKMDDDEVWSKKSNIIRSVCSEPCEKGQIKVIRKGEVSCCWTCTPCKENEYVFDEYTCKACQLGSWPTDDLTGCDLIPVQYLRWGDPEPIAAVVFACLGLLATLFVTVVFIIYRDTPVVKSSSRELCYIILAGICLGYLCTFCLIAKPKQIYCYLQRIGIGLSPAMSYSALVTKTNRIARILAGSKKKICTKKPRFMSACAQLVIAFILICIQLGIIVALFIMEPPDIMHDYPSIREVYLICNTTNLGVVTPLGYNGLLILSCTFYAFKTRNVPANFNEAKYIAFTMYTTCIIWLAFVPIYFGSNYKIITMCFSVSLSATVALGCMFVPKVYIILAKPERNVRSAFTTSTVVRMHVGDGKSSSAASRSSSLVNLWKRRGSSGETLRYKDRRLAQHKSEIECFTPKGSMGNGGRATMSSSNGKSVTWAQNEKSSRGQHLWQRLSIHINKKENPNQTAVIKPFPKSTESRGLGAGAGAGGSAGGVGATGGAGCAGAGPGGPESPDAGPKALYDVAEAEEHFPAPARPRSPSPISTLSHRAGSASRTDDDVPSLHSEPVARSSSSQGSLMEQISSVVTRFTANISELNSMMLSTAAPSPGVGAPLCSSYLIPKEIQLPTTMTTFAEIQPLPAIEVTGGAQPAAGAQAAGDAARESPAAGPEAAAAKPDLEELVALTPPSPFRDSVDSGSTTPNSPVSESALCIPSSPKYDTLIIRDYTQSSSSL

rat mGluR2 = rat mGluR2 (Rattus norvegicus, UniProt P31421); conditions: doses up to 10 μm; cited from earlier work
[1] = Tolerability of fenobam-supplemented diet in Tg2576 mice; type: in vivo
Description: (§1) Mice were fed a fenobam-supplemented mouse food that was a purified ingredient diet formulated by Research Diets, Inc. (New Brunswick, N.J.) to match Purina 5015 lab diet in protein, carbohydrate and fat calories. For chronic dosing, the diet was supplemented with 0.2 g fenobam per kg lab diet and colored red for visual differentiation with the placebo food.

[2] = tested on: audiogenic seizures in mice; assay: Audiogenic seizure (AGS) testing; type: in vivo, mouse; conditions: treated (immunized or Purina + drug)
rat mGluR4a = rat mGluR4a (Rattus norvegicus, UniProt P31423); conditions: doses up to 10 μm; cited from earlier work
Sequence of rat mGluR4a (P31423 33-912): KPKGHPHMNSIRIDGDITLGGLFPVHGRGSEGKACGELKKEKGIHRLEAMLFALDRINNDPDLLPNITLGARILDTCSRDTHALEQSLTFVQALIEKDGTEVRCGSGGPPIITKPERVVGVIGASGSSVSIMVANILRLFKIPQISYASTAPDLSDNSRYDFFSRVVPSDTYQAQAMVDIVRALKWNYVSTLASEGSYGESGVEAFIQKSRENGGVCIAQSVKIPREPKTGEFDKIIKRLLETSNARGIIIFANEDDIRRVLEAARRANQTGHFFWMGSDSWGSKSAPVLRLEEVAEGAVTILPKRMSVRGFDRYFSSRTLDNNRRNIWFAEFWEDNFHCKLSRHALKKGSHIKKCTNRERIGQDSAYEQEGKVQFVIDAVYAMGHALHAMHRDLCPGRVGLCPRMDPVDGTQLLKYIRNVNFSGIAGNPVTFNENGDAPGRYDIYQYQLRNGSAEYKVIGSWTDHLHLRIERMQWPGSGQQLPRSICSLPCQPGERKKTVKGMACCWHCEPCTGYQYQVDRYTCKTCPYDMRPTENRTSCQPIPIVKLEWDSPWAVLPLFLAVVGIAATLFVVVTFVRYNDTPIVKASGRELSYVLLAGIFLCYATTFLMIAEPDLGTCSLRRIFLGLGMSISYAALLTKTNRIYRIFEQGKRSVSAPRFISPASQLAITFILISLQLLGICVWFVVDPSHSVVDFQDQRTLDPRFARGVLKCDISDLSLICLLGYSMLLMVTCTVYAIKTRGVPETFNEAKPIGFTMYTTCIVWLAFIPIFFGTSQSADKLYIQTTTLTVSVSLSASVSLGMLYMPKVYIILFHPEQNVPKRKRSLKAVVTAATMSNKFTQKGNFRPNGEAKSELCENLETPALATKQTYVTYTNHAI

[3] = humans, cited from earlier work
rat mGluR7a = rat mGluR7a (Rattus norvegicus, UniProt P35400); conditions: doses up to 10 μm; cited from earlier work
Sequence of rat mGluR7a (P35400 35-915): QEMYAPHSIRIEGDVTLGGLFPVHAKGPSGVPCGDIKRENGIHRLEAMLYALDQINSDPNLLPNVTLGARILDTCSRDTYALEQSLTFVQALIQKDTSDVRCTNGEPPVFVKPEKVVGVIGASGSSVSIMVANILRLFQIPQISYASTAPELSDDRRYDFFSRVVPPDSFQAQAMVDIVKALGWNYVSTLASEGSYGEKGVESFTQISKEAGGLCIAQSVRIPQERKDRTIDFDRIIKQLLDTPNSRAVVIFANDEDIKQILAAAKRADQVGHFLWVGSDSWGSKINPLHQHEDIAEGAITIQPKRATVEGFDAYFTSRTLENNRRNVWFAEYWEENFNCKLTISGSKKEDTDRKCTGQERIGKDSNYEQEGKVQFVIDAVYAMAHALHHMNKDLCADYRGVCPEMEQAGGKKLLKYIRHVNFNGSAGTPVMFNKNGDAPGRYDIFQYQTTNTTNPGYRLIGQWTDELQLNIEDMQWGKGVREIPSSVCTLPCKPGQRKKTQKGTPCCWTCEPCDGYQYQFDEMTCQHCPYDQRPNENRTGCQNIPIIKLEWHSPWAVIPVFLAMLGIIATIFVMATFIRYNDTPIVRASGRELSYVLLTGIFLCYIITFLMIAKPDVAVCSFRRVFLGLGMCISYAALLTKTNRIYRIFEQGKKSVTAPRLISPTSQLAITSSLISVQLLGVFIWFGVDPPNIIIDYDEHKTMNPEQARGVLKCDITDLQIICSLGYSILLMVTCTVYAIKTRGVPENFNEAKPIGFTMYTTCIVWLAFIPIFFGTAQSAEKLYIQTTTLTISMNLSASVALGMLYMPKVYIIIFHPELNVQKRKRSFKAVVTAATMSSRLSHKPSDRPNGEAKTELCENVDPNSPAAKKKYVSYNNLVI

[4] = tested on: Aβ1-40 and Aβ1-42 in Tg2576 mouse brain; assay: Brain Aβ ELISA after chronic fenobam-supplemented diet in Tg2576 mice; conditions: one month
Description: FIG. 12 is a graph illustrating the effects of fenobam treatment in Tg2576 mice. Tg2576 mice were fed placebo or fenobam-supplemented lab diet for one month prior to harvesting brains for ELISA assays. For chronic dosing, the diet was supplemented with 0.2 g fenobam per kg lab diet and colored red for visual differentiation with the placebo food. Whole brain homogenates from control and fenobam-treated mice were analyzed by ELISA for Aβ1-40 (left) and Aβ1-42 (right). Data were plotted as ng/mL Aβ per μg soluble brain lysate. […] The left bar in each group represents Aβ levels in mice fed with placebo food; and the right bar in each group represents Aβ levels in mice fed with fenobam-supplemented food.
as §1
After one month of chronic fenobam dosing, brain tissue was harvested and Aβ levels measured. Specifically assessed by ELISA were human (expressed from the APPSwe transgene) and mouse (endogenous) Aβ1-40 and Aβ1-42 levels.

[5] = tested on: Aβ1-40 and Aβ1-42 in Fmr-1 KO mouse brain; assay: Brain region Aβ ELISA after fenobam-supplemented diet in Fmr-1 KO mice
Description: Fmr-1 KO mice were fed placebo or fenobam-supplemented lab diet for two months prior to harvesting brains for ELISA assays. Homogenates of hippocampus (H), cortex (Cx) and cerebellum (Cb) were analyzed by ELISA for Aβ1-40 and Aβ1-42. Data were plotted as a percentage of Aβ compared to levels in control mouse hippocampus. C: control, F: Fenobam.
Fmr-1 KO mice were fed placebo or fenobam-supplemented lab diet for one month prior to harvesting brains for ELISA assays. Homogenates of hippocampus (H), cortex (Cx) and cerebellum (Cb) were analyzed by ELISA for Aβ1-40 and Aβ1-42. Data were plotted as a percentage of Aβ compared to levels in control mouse hippocampus.

COc1ccc(C[C@H]2NC[C@H](O)[C@H]2OC(C)=O)cc1 [anisomycin]
effect on mGluR activation of APP translation (APP translation in SN): blocked

CN1CC(=O)N=C1NC(=O)Nc1cccc(Cl)c1.O=S(=O)(O)O [fenobam]
effect on anxiety (anxiety in humans): reduces anxiety
effect on anxiety (anxiety in rats): reduces anxiety
activity toward rat mGluR1a (rat mGluR1a): no activity
effect on anxiety (anxiety in mice): reduces anxiety
activity toward rat mGluR8a (rat mGluR8a): no activity
mGluR5 antagonist character (mGluR5): potent and highly selective noncompetitive antagonists
activity toward rat mGluR2 (rat mGluR2): no activity
premature death ([1]; Tg2576 mice, 0.2 g fenobam per kg diet, chronic dosing): no incidences of premature death
adverse side effects ([1]; mouse, in vivo): No adverse side effects
weight gain ([1]; mouse, in vivo): normal weight gain
% Death ([2]; DS (Ts65Dn) mice): 0%
% WR ([2]; DS (Ts65Dn) mice): 58%
% AGS ([2]; DS (Ts65Dn) mice, listed as Fenobaum): 0%
% AGS ([2]; DS (Ts65Dn) mice, listed as fenobaum): attenuates seizures
% AGS ([2]; WT littermates of DS model): 0%
% Death ([2]; WT littermates of DS model): 0%
% WR ([2]; WT littermates of DS model): 0%
activity toward rat mGluR4a (rat mGluR4a): no activity
side effects ([3]; therapeutically-effective dosages): no harmful side effects
side effects in one study (Friedmann et al., 1980) [3]: psycho-stimulating properties
activity toward rat mGluR7a (rat mGluR7a): no activity
mouse Aβ1-42 levels ([4]; Tg2576, fenobam diet): no change
mouse Aβ1-40 level in brain ([4]; Tg2576 males on fenobam food): 60 ng/mL/µg
human Aβ levels, control vs fenobam-fed ([4]; Tg2576 mice, 0.2 g fenobam per kg diet): No change
decrease in mouse Aβ1-40 levels ([4]; male Tg2576, 0.2 g fenobam per kg diet): 11.5 fold
decrease in Aβ1-42 in the cortex ([5]; fenobam food 1 month): 40%
Aβ1-42 in hippocampus and cortex ([5]; fenobam food 2 months): modest reductions
decrease in Aβ1-40 in cerebellum ([5]; fenobam food 2 months): 19%
decrease in Aβ1-40 in cortex ([5]; fenobam food 2 months): 26%
reduction in Aβ1-42 in the cerebellum ([5]; fenobam food 2 months): 4.2 fold
